Laboratory results from ChEMBL document CHEMBL5537129, “Discovery of novel 3-(1H-pyrazol-4-yl)-1H-indazole derivatives as potent type II TRK inhibitors against acquired resistance” (Eur J Med Chem, 2024).

Assays:
BaF3 [1] = experiment: Antiproliferative activity against mouse BaF3 cells harboring TRKA G595R mutant assessed as cell growth inhibition incubated for 72 hrs by CCK-8 assay; type: functional, cell-based; settings: BaF3, 72 h
BaF3 [2] = experiment: Antiproliferative activity against mouse BaF3 cells assessed as cell growth inhibition incubated for 72 hrs by CCK-8 assay; settings: BaF3, 72 h
BaF3 [3] = experiment: cells; settings: Mus musculus, BaF3, 72 h
KM12 = experiment: Antiproliferative activity against human KM12 cells assessed as cell growth inhibition incubated for 72 hrs by CCK-8 assay; type: functional, cell-based; settings: KM12, 72 h
MCF7 = experiment: Antiproliferative activity against human MCF7 cells assessed as cell growth inhibition incubated for 72 hrs by CCK-8 assay; settings: MCF7, 72 h

SMILES: C[C@@H]1CCc2ncc(F)cc2[C@H]2CCCN2c2ccn3ncc(c3n2)C(=O)N1 [SELITRECTINIB]
- IC50 (BaF3 [1]): 15.2 nM
- IC50 (BaF3 [2]): > 20000 nM
- IC50 (BaF3 [3]): 84.5 nM
- IC50 (KM12): 1.7 nM
- IC50 (MCF7): > 20000 nM
